What was measured:
[1] = molecular target: T1, Rat recombinant PDE10A (rPDE10A2) (Rattus norvegicus, UniProt Q9QYJ6); experiment: In vitro assay PDE10A (SPA, 3H-cAMP); format: biochemical; conditions: pIC50 corresponds to the −log IC50 expressed in mol/L; read-out: PDE10A2 pIC50 (converted)
T1 construct: inferred from the Ni metal chelate purification; made in house; host or cells: Sf9 insect cells (baculovirus)
T1 sequence (Q9QYJ6 1-794): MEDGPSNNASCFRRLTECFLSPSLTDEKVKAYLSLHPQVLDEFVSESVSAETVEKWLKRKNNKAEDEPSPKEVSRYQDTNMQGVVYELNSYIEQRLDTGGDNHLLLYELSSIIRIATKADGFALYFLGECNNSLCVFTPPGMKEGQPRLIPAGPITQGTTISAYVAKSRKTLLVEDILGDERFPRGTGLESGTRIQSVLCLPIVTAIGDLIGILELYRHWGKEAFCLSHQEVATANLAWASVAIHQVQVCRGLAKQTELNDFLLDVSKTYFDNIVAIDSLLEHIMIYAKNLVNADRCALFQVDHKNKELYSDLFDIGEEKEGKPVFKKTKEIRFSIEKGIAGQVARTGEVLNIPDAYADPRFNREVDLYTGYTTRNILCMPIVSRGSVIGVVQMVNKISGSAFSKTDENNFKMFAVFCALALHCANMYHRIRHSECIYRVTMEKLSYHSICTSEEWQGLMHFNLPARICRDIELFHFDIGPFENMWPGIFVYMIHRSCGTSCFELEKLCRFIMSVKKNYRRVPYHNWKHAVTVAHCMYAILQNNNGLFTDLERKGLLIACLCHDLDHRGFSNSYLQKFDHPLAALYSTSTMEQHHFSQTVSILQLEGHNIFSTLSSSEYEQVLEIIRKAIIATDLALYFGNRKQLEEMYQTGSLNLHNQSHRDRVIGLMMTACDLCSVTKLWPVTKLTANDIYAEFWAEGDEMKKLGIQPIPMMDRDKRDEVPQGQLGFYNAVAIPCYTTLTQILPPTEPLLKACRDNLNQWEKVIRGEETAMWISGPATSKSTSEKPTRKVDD
Description: Rat recombinant PDE10A (rPDE10A2) was expressed in Sf9 cells using a recombinant rPDE10A baculovirus construct. Cells were harvested after 48 h of infection and the rPDE10A protein was purified by metal chelate chromatography on Ni-sepharose 6FF. Tested compounds were dissolved and diluted in 100% DMSO to a concentration 100 fold of the final concentration in the assay. Compound dilutions (0.4 μl) were added in 384 well plates to 20 μl of incubation buffer (50 mM Tris pH 7.8, 8.3 mM MgCl2, 1.7 mM EGTA). 10 μl of rPDE10A enzyme in incubation buffer was added and the reaction was started by addition of 10 μl substrate to a final concentration of 60 nM cAMP and 0.008 μCi ^3H-cAMP. The reaction was incubated for 60 minutes at room temperature. […] After sedimentation of the beads during 30 minutes the radioactivity was measured in a Perkin Elmer Topcount scintillation counter and results were expressed as cpm. For blanc values the enzyme was omitted from the reaction and replaced by incubation buffer. Control values were obtained by addition of a final concentration of 1% DMSO instead of compound. The same assay principle is applied for the measurement of the affinity of the compound for other members of the PDE family with appropriate modifications in incubation buffer, substrate concentration, incubation time and stop solution.

[2] = tested on: apomorphine-induced stereotypy in rats; experiment: Apomorphine-induced stereotypy in rats (APO); format: in vivo; conditions: Rattus norvegicus, n.d.: found not active at threshold dose 2.5 mg/kg or 10 mg/kg (a)
Description: Apomorphine (1.0 mg/kg, i.v.)-induced stereotypy (compulsive sniffing, licking, chewing) was scored every 5 min over the first hour after injection of apomorphine, following a 1 hour interval pre-treatment with the test compound. The score system was: (3) pronounced, (2) moderate, (1) slight, and (0) absent.

[3] = po, * not soluble, tested orally as a suspension

Row | IC50 [1] [µM] | SMILES | ED50 ([2]; not further tested) [mg/kg] | ED50 [2, 3] [mg/kg]
1 | 0.302 | Cc1nc2c(-c3ccncc3)cc(C3CC3)nn2c1-c1ccc(N2CCNCC2)nc1 [compound 99, 6-cyclopropyl-2-methyl-3-[6-(1-piperazinyl)-3-pyridinyl]-8-(4-pyridinyl)-imidazo[1,2-b]pyridazine] | > 2.5 | 
2 | 0.01 | FC(F)(F)Cn1cc(-c2c(C3CC3)nc3c(-c4ccncc4)ccnn23)cn1 [compound 141, 2-cyclopropyl-8-(4-pyridinyl)-3-[1-(2,2,2-trifluoroethyl)-1H-pyrazol-4-yl]-imidazo[1,2-b]pyridazine] |  | > 2.5
3 | 0.257 | Cc1nc2c(N3CCOCC3)ccnn2c1-c1ccnc(N2CCNCC2)c1 [compound 103, 2-methyl-8-(4-morpholinyl)-3-[2-(1-piperazinyl)-4-pyridinyl]-imidazo[1,2-b]pyridazine] | > 2.5 | 
4 | 0.263 | CCc1ccc(-c2c(C)nc3c(-c4ccncc4)cc(C4CC4)nn23)cn1 [compound 86, 6-cyclopropyl-3-(6-ethyl-3-pyridinyl)-2-methyl-8-(4-pyridinyl)-imidazo[1,2-b]pyridazine] | > 2.5 | 
5 | 0.112 | COCCOc1ccc(-c2c(C)nc3c(-c4cccnc4)ccnn23)cn1 [compound 9, 3-[6-(2-methoxyethoxy)-3-pyridinyl]-2-methyl-8-(3-pyridinyl)-imidazo[1,2-b]pyridazine] | > 2.5 | 
6 | 0.0309 | COCCc1cc(-c2c(C)nc3c(N4CCOCC4)ccnn23)ccn1 [compound 26, 3-[2-(2-methoxyethyl)-4-pyridinyl]-2-methyl-8-(4-morpholinyl)-imidazo[1,2-b]pyridazine] | > 2.5 | 
7 | 0.0676 | Cc1nc2c(N3CCOCC3)ccnn2c1-c1ccc(NC(C)C)nc1 [compound 90, N-(1-methylethyl)-5-[2-methyl-8-(4-morpholinyl)imidazo[1,2-b]pyridazin-3-yl]-2-pyridinamine] | > 2.5 | 
8 | 0.186 | Cc1cc(-c2ccncc2)c2nc(C)c(-c3ccc(N4CCNCC4)nc3)n2n1 [compound 96, 2,6-dimethyl-3-[6-(1-piperazinyl)-3-pyridinyl]-8-(4-pyridinyl)-imidazo[1,2-b]pyridazine] | > 2.5 | 
9 | 0.0708 | Cc1ccc(-c2c(C)nc3c(N4CCOCC4)ccnn23)cn1 [compound 39, 2-methyl-3-(6-methyl-3-pyridinyl)-8-(4-morpholinyl)-imidazo[1,2-b]pyridazine] | > 2.5 | 
10 | 0.0339 | CCOCCc1ccc(-c2c(C)nc3c(N4CCOCC4)ccnn23)cn1 [compound 25, 3-[6-(2-ethoxyethyl)-3-pyridinyl]-2-methyl-8-(4-morpholinyl)-imidazo[1,2-b]pyridazine] |  | > 2.5
11 | 0.468 | COCCOc1ccc(-c2cnc3c(N4CCOCC4)ccnn23)cn1 [compound 52, 3-[6-(2-methoxyethoxy)-3-pyridinyl]-8-(4-morpholinyl)-imidazo[1,2-b]pyridazine] | > 2.5 | 
12 | 0.117 | COC(C)(C)Cc1ccc(-c2c(C)nc3c(-c4ccncc4)cc(C4CC4)nn23)cn1 [compound 40, 6-cyclopropyl-3-[6-(2-methoxy-2-methylpropyl)-3-pyridinyl]-2-methyl-8-(4-pyridinyl)-imidazo[1,2-b]pyridazine] | > 2.5 | 
13 | 0.407 | COCCOc1ccc(-c2c(C)nc3c(N4CCOCC4)cc(C4CC4)nn23)cn1 [compound 41, 6-cyclopropyl-3-[6-(2-methoxyethoxy)-3-pyridinyl]-2-methyl-8-(4-morpholinyl)-imidazo[1,2-b]pyridazine] | > 2.5 | 
14 | 0.132 | Cc1nc2c(N3CCOCC3)ccnn2c1-c1cn[nH]c1 [compound 116, 2-methyl-8-(4-morpholinyl)-3-(1H-pyrazol-4-yl)-imidazo[1,2-b]pyridazine] |  | > 10
15 | 0.0513 | CCc1ccc(-c2c(C)nc3c(-c4ccncc4)ccnn23)cn1 [compound 83, 3-(6-ethyl-3-pyridinyl)-2-methyl-8-(4-pyridinyl)-imidazo[1,2-b]pyridazine] | > 2.5 | 
16 | 0.0513 | COCCc1ccc(-c2c(C3CC3)nc3c(-c4ccncc4)cc(C)nn23)cn1 [compound 56, 2-cyclopropyl-3-[6-(2-methoxyethyl)-3-pyridinyl]-6-methyl-8-(4-pyridinyl)-imidazo[1,2-b]pyridazine] | > 2.5 | 
17 | 0.132 | Cc1nc2c(N3CCOCC3)ccnn2c1-c1ccc(N2CCCC2)nc1 [compound 89, 2-methyl-8-(4-morpholinyl)-3-[6-(1-pyrrolidinyl)-3-pyridinyl]-imidazo[1,2-b]pyridazine] |  | > 2.5
18 | 0.0302 | COCCn1cc(-c2c(C(F)(F)F)nc3c(-c4ccncc4)ccnn23)cn1 [compound 122, 3-[1-(2-methoxyethyl)-1H-pyrazol-4-yl]-8-(4-pyridinyl)-2-(trifluoromethyl)-imidazo[1,2-b]pyridazine] | > 2.5 | 
19 | 0.0537 | Cc1nc2c(N3CCOCC3)ccnn2c1-c1ccc(CC(C)C)nc1 [compound 104, 2-methyl-3-[6-(2-methylpropyl)-3-pyridinyl]-8-(4-morpholinyl)-imidazo[1,2-b]pyridazine] | > 2.5 | 
20 | 0.191 | COC(C)(C)Cc1ccc(-c2c(C)nc3c(N4CCOCC4)cc(C4CC4)nn23)cn1 [compound 43, 6-cyclopropyl-3-[6-(2-methoxy-2-methylpropyl)-3-pyridinyl]-2-methyl-8-(4-morpholinyl)-imidazo[1,2-b]pyridazine] | > 2.5 | 
21 | 0.302 | COCCc1ccc(-c2c(C3CC3)nc3c(N4CCOCC4)cc(C)nn23)cn1 [compound 15, 2-cyclopropyl-3-[6-(2-methoxyethyl)-3-pyridinyl]-6-methyl-8-(4-morpholinyl)-imidazo[1,2-b]pyridazine] |  | > 2.5
22 | 0.105 | COC(C)(C)Cc1ccc(-c2cnc3c(N4CCOCC4)ccnn23)cn1 [compound 51, 3-[6-(2-methoxy-2-methylpropyl)-3-pyridinyl]-8-(4-morpholinyl)-imidazo[1,2-b]pyridazine] | > 2.5 | 
23 | 0.0501 | COC(C)(C)Cc1ccc(-c2c(C3CC3)nc3c(N4CCOCC4)ccnn23)cn1 [compound 45, 2-cyclopropyl-3-[6-(2-methoxy-2-methylpropyl)-3-pyridinyl]-8-(4-morpholinyl)-imidazo[1,2-b]pyridazine] | > 2.5 | 
24 | 0.209 | COCCOc1ccc(-c2c(C)nc3c(-c4ccncc4)cc(C)nn23)cn1 [compound 49, 3-[6-(2-methoxyethoxy)-3-pyridinyl]-2,6-dimethyl-8-(4-pyridinyl)-imidazo[1,2-b]pyridazine] | > 2.5 | 
25 | 0.186 | Cc1nc2c(-c3ccncc3)cc(C3CC3)nn2c1-c1ccc(N2CCOCC2)nc1 [compound 58, 6-cyclopropyl-2-methyl-3-[6-(4-morpholinyl)-3-pyridinyl]-8-(4-pyridinyl)-imidazo[1,2-b]pyridazine] | > 2.5 | 
26 | 0.269 | CCc1ccc(-c2c(C)nc3c(N4CCOCC4)cc(C4CC4)nn23)cn1 [compound 107, 6-cyclopropyl-3-(6-ethyl-3-pyridinyl)-2-methyl-8-(4-morpholinyl)-imidazo[1,2-b]pyridazine] | > 2.5 | 
27 | 0.11 | c1cc(N2CCOCC2)c2nc(C3CC3)c(-c3ccc(N4CCNCC4)nc3)n2n1 [compound 98, 2-cyclopropyl-8-(4-morpholinyl)-3-[6-(1-piperazinyl)-3-pyridinyl]-imidazo[1,2-b]pyridazine] | > 2.5 | 
